Test results from patent publication US10961215B2, “N-aryl and N-heteroaryl piperidine derivatives as liver X receptor beta agonists, compositions, and their use” (Merck Sharp & Dohme Corp., priority 2016, dated 2021).

Experiments:
[1] = molecular target: T1, GST tagged LXRalpha LBD (ligand binding domain) (Homo sapiens, UniProt Q13133); experiment: LanthaScreen TR-FRET Liver X Receptor Coactivator Assay, LXR alpha-LBD (co-activator recruitment; IP and % Emax relative to T0901317); type: biochemical; conditions: for LXR alpha IP (nM) / EC50: Inflection Point of co-activator recruitment, LXR alpha-LBD, TR-FRET; for Emax: efficacy at max dose in relation to reference T0901317, LXR alpha-LBD, read-out: LXR alpha actiivty at max dose (%)
T1 construct: purchased Invitrogen pv4655
T1 sequence (Q13133 209-447 limits assumed): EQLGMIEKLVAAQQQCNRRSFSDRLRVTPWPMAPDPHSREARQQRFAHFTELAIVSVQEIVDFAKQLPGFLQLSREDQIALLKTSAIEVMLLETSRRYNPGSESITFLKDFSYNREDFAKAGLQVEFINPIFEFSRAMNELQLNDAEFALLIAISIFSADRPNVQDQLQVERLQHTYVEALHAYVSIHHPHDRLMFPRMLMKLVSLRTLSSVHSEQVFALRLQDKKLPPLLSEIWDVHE
Description: (§1) Potency (Inflection Point, IP) and efficacy (Emax) are evaluated via compound-induced co-activator recruitment to glutathione-S-transferase (GST) tagged LXRbeta and LXRalpha LBD (ligand binding domain) proteins in relation to reference dual agonist compound T0901317 (N-(2,2,2-Trifluoroethyl)-N-[4-[2,2,2-trifluoro-1-hydroxy-1-(trifluoromethyl)ethyl]phenyl]benzenesulfonamide) using the LanthaScreen™ TR-FRET Liver X Receptor Coactivator Assays according to manufacturer's instructions (Invitrogen catalog number pv4658.pps and pv4655). While running the LanthaScreen™ TR-FRET Liver X Receptor Coactivator Assay, LXR alpha-LBD or LXR beta-LBD was added to ligand test compounds followed by addition of a mixture of a fluorescein-labelled coactivator peptide and terbium-conjugated anti-GST antibody. After an incubation period at room temperature, TR-FRET (time-resolved fluorescence resonance energy transfer) was measured using a filter-based instrument capable of TR-FRET, e.g. PerkinElmer Envision.

[2] = molecular target: T2, GST tagged LXRbeta LBD (ligand binding domain) (Homo sapiens, UniProt P55055); experiment: LanthaScreen TR-FRET Liver X Receptor Coactivator Assay, LXR beta-LBD (co-activator recruitment; IP and % Emax relative to T0901317); type: biochemical; conditions: for EC50: Inflection Point of co-activator recruitment, LXR beta-LBD, TR-FRET; for Emax: efficacy at max dose in relation to reference T0901317, LXR beta-LBD, read-out: LXR beta actiivty at max dose (%)
T2 construct: purchased Invitrogen pv4658.pps
T2 sequence (P55055 222-460 limits assumed): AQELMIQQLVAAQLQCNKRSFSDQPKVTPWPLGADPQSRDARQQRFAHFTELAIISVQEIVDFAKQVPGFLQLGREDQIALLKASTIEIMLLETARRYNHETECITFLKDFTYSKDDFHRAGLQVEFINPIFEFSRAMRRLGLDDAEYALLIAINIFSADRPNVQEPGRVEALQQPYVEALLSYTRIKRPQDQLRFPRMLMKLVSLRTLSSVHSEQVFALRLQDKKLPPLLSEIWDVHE
Description: as §1

| Structure (SMILES) | LXR alpha IP (nM) [1] | Emax [1] | EC50 [2] | Emax [2] | EC50 [1] |
| --- | --- | --- | --- | --- | --- |
| COc1cccc([C@](O)(C(=O)N(C)CCCC2CCN(c3ccc(C(=O)N(C)C)c(Cl)n3)CC2)C(F)(F)F)c1 [Example 1-27, (S)-2-chloro-N,N-dimethyl-6-(4-(3-(3,3,3-trifluoro-2-hydroxy-2-(3-methoxyphenyl)-N-methylpropanamido)propyl)piperidin-1-yl)nicotinamide] | No IP | 3% | 603 nM | 53% |  |
| CCc1cccc([C@@](O)(C(=O)N(C)CCCC2CCN(c3ccc(C(=O)N(C)C)c(Cl)n3)CC2)C(F)(F)F)c1 [Example 1-28, (R)-2-chloro-6-(4-(3-(2-(3-ethylphenyl)-3,3,3-trifluoro-2-hydroxy-N-methylpropanamido)propyl)piperidin-1-yl)-N,N-dimethylnicotinamide] | No IP | 0% | 67 nM | 39% |  |
| CN(C)C(=O)c1ccc(N2CCC(CCCN(C)C(=O)[C@](N)(c3ccccc3)C(F)(F)F)CC2)nc1Cl [Example 1-29, (R)-6-(4-(3-(2-amino-3,3,3-trifluoro-N-methyl-2-phenylpropanamido)propyl)piperidin-1-yl)-2-chloro-N,N-dimethylnicotinamide] | No IP | 8% | 396 nM | 51% |  |
| CN(C)C(=O)c1ccc(N2CCC(CCCN(C)C(=O)[C@@](N)(c3ccccc3)C(F)(F)F)CC2)nc1Cl [Example 1-30, (S)-6-(4-(3-(2-amino-3,3,3-trifluoro-N-methyl-2-phenylpropanamido)propyl)piperidin-1-yl)-2-chloro-N,N-dimethylnicotinamide] | No IP | 1% | 237 nM | 47% |  |
| CCc1cccc([C@](O)(C(=O)N(C)CCCC2CCN(c3ccc(C(=O)N(C)C)c(Cl)n3)CC2)C(F)(F)F)c1 [Example 1-31, (S)-2-chloro-6-(4-(3-(2-(3-ethylphenyl)-3,3,3-trifluoro-2-hydroxy-N-methylpropanamido)propyl)piperidin-1-yl)-N,N-dimethylnicotinamide] | No IP | 0% | 163 nM | 56% |  |
| CC(C)Oc1cccc(C(O)(C(=O)N(C)CCCC2CCN(c3ccc(C(=O)N(C)C)c(Cl)n3)CC2)C(F)(F)F)c1 (stereo not shown) [Example 1-32, 2-chloro-N,N-dimethyl-6-(4-(3-(3,3,3-trifluoro-2-hydroxy-2-(3-isopropoxyphenyl)-N-methylpropanamido)propyl)piperidin-1-yl)nicotinamide] | No IP | 0% | 95 nM | 48% |  |
| CN(C)C(=O)c1ccc(N2CCC(CCCN(C)C(=O)[C@](O)(c3cccc(C4CC4)c3)C(F)(F)F)CC2)nc1Cl [Example 1-33, (R)-2-chloro-6-(4-(3-(2-(3-cyclopropylphenyl)-3,3,3-trifluoro-2-hydroxy-N-methylpropanamido)propyl)piperidin-1-yl)-N,N-dimethylnicotinamide] | No IP | 0% | 17 nM | 70% |  |
| CN(C)C(=O)c1ccc(N2CCC(CCCN(C)C(=O)[C@@](O)(c3cccc(OC4CC4)c3)C(F)(F)F)CC2)nc1Cl [Example 1-35, (S)-2-chloro-6-(4-(3-(2-(3-cyclopropoxyphenyl)-3,3,3-trifluoro-2-hydroxy-N-methylpropanamido)propyl)piperidin-1-yl)-N,N-dimethylnicotinamide] | No IP | 14% | 437 nM | 46% |  |
| CN(C)C(=O)c1ccc(N2CCC(CCCN(C)C(=O)[C@](O)(c3cc(Cl)cc(Cl)c3)C(F)(F)F)CC2)nc1Cl [Example 1-37, (R)-2-chloro-6-(4-(3-(2-(3,5-dichlorophenyl)-3,3,3-trifluoro-2-hydroxy-N-methylpropanamido)propyl)piperidin-1-yl)-N,N-dimethylnicotinamide] | No IP | 0% | 35 nM | 44% |  |
| CN(C)C(=O)c1ccc(N2CCC(CCCN(C)C(=O)[C@@](O)(c3cccc(OC(F)(F)F)c3)C(F)(F)F)CC2)nc1Cl [Example 1-39, (S)-2-chloro-N,N-dimethyl-6-(4-(3-(3,3,3-trifluoro-2-hydroxy-N-methyl-2-(3-(trifluoromethoxy)phenyl)propanamido)propyl)piperidin-1-yl)nicotinamide] |  | 34% | 567 nM | 53% | 11100 nM |

Now from value to compound:

| LXR alpha IP (nM) [1] | Emax [1] | EC50 [2] | Emax [2] | EC50 [1] | Structure (SMILES) |
| --- | --- | --- | --- | --- | --- |
| No IP | 16% | 261 nM | 49% |  | CN(C)C(=O)c1ccc(N2CCC(CCCN(C)C(=O)[C@@](O)(c3cccc(C4CC4)c3)C(F)(F)F)CC2)nc1Cl [Example 1-34, (S)-2-chloro-6-(4-(3-(2-(3-cyclopropylphenyl)-3,3,3-trifluoro-2-hdyroxy-N-methylpropanamido)propyl)piperidin-1-yl)-N,N-dimethylnicotinamide] |
| No IP | 0% | 78 nM | 63% |  | CCOc1cccc([C@@](O)(C(=O)N(C)CCCC2CCN(c3ccc(C(=O)N(C)C)c(Cl)n3)CC2)C(F)(F)F)c1 [Example 1-36, (R)-2-chloro-6-(4-(3-(2-(3-ethoxyphenyl)-3,3,3-trifluoro-2-hydroxy-N-methylpropanamido)propyl)piperidin-1-yl)-N,N-dimethylnicotinamide] |
|  | 18% | 156 nM | 78% | 1920 nM | CN(C)C(=O)c1ccc(N2CCC(CCCN(C)C(=O)[C@@]3(c4ccccc4)CCCO3)CC2)nc1Cl [Example 1-38, (S)-2-chloro-N,N-dimethyl-6-(4-(3-(N-methyl-2-phenyltetrahydrofuran-2-carboxamido)propyl)piperidin-1-yl)nicotinamide] |
| No IP | 0% | 52 nM | 63% |  | CN(C)C(=O)c1ccc(N2CCC(CCCN(C)C(=O)[C@](O)(c3cccc(OC(F)(F)F)c3)C(F)(F)F)CC2)nc1Cl [Example 1-40, (R)-2-chloro-N,N-dimethyl-6-(4-(3-(3,3,3-trifluoro-2-hydroxy-N-methyl-2-(3-(trifluoromethoxy)phenyl)propanamido)propyl)piperidin-1-yl)nicotinamide] |
| No IP | 0% | 105 nM | 44% |  | CN(C)C(=O)c1ccc(N2CCC(CCCN(C)C(=O)[C@](O)(c3cccc(OC4CC4)c3)C(F)(F)F)CC2)nc1Cl [Example 1-41, (R)-2-chloro-6-(4-(3-(2-(3-cyclopropoxyphenyl)-3,3,3-trifluoro-2-hydroxy-N-methylpropanamido)propyl)piperidin-1-yl)-N,N-dimethylnicotinamide] |
| No IP | 11% | 92 nM | 64% |  | CN(C)C(=O)c1ccc(N2CCC(CCCN(C)C(=O)C3(c4ccccc4)CCCC3)CC2)nc1Cl [Example 1-42, 2-chloro-N,N-dimethyl-6-(4-(3-(N-methyl-1-phenylcyclopentanecarboxamido)pro-pyl)piperidin-1-yl)nicotinamide] |
